Reference: US8623821B2, “Zymogen activators” (Genentech, Inc., priority 2011, dated 2014)
Entries after “also recorded” stand apart in the source; their conditions may differ. Where a SMILES comes first, the peptide text is derived from it. Bridges are numbered along the chain shown (N, C = ends). Where no end group is shown, it is not given here. [ ]: non-standard residue; d: D form.

What was measured:
[1] = target: T1, scHGF β (Homo sapiens, UniProt P14210, R494E); experiment: scHGF β activation/Met binding assay (biolayer interferometry); details: for fold more potent than previously described peptides derived from the native HGF β N-terminus: versus Landgraf et al. 2010 peptides
T1 construct: the scHGF β-chain (residues Asn^479 to Ser^728) contains the R494E mutation; His-tag (C); made in house; host or cells: insect cells (pAcGP67 vector)
Protocol: (§1) Met binding assays were carried out utilizing the OctetRed™ biolayer interferometry instrument (ForteBio, Inc.) as reported previously (Landgraf, K. E. et al. (2010) J Biol Chem 285: 40362-72). Biotinylated Met ECD (Sema/PSI-AviTag) was captured on the surface of streptavidin optical sensor tips (SA biosensors, ForteBio, Inc.), and transferred into buffer containing 0.5 μM scHGF β-chain variants in the presence of increasing concentration of indicated peptides. Association and dissociation reactions were monitored to ensure reversible binding between scHGF β and Met. Binding was quantified using the steady-state levels of surface response from the association reaction. Equilibrium constants were derived by least squares fitting of the titration data to a single-site binding equation. Errors reported are ±stdev of n=3 independent experiments.
Based on the finding that the consensus ZAPs contain features consistent with binding and inserting into the activation pocket, several related peptides were synthesized and utilized in a previously established scHGF β activation assay to assess their affinities and ability to active Met binding (Landgraf, K. E. et al. (2010) J Biol Chem 285: 40362-72). Since scHGF β can only weakly interact with the Met Sema-PSI domain compared to the active HGF β form, biolayer interferometry was used in the activation assay to measure the ability of a peptide to directly enhance the binding affinity of scHGF β to a streptavidin sensor surface coated with biotinylated Met (Landgraf, K. E. et al. (2010) J Biol Chem 285: 40362-72). Thus, titration of an activator peptide should result in a significant increase in the surface response signal due to enhanced scHGF β binding to Met.

[2] = target: T2, scHGF (Homo sapiens, UniProt P14210, R494E); experiment: BxPC-3 cell survival assay, peptide titrations in the presence of scHGF; type: cell-based; set-up: Full-length recombinant HGF proteins were expressed in 1-liter fermentation cultures of Chinese hamster ovary (CHO) cells; made in house; host or cells: CHO cells (scHGF); details: BxPC-3 cells, serum starvation, 72 h, alamar Blue; read-out: EC50 of activation of scHGF, cell survival
Protocol: (§2) BxPC-3 cells were obtained from ATCC and maintained in cell culture medium (RPMI, 10% FBS (Sigma), 50 U/ml penicillin/50 μg/ml streptomycin, 2 mM glutamine). For the survival assay, cells were plated at 10,000 cells/well in 96 well tissue culture plates (Falcon 353072) in 50 μl assay diluent (RPMI, 0.1% BSA (Sigma) 50 U/ml penicillin/50 μg/ml streptomycin, 2 mM glutamine). Cells were allowed to attach for 1-2 h in a 37° C. CO2 incubator. Human HGF proteins (HGF, scHGF or scHGF plus peptide titrations) were pre-incubated at room temperature in assay diluent. HGF/peptide mixtures were added to cells in microtiter plates in triplicate at 50 μl per well and plates were incubated at 37° C. in a CO2 incubator. Final concentrations of HGF variants were 400 ng/ml and peptide concentrations were titrated accordingly. After 72 h, 25 μl alamar Blue (Serotec, BUF012B) was added to each well and incubate an additional 2 h at 37° C. in a CO2 incubator. Plates were agitated vigorously for 10 min at room temperature, and fluorescence was read at 530-590 nm in a fluorescent plate reader.
Using Bx-PC3 cells, peptide titrations in the presence of scHGF were performed and observed robust activation was seen of scHGF signaling through Met, which reached levels equivalent HGF-induced signaling.
(§3) Cellular assays were used to address whether the optimized ZAPtides act as allosteric activators of pro-HGF and stimulate Met signaling in biologically relevant settings of cell survival and migration. […] Importantly, ZAPtides required the presence of scHGF as well as induced […] cell survival that was antagonized by an HGF-blocking anti-Met antibody, each confirming Met pathway selectivity.

[3] = target: Met; experiment: Binding of peptide-zHGF β complex to surface immobilized Met ECD (biolayer interferometry); details: read-out: affinity of peptide-zHGF β complex for Met
Protocol: as §1

[4] = target: T3, scHGF β D672N mutant (Homo sapiens, UniProt P14210, D672N/R494E); experiment: scHGF β activation/Met binding assay with activation-pocket mutant; details: Asp672 to Asn in activation pocket
T3 construct: the scHGF β-chain (residues Asn^479 to Ser^728) contains the R494E mutation; His-tag (C); made in house; host or cells: insect cells (pAcGP67 vector)
Protocol: as §1
However, the partial activity observed with Asp in position 3 was consistent with the fact that the native sequence contains a highly similar Asn residue, but the strained backbone conformation necessary to accommodate the Asp during N-terminal insertion would be energetically unfavorable. […] In addition, the solubility of this peptide variant is enhanced by the polar aspartic acid side chain while maintaining increased activity compared to the IVDG.14 variant.

[5] = Peptide solubility; type: physicochemical
[6] = target: T4, prethrombin-2 (Homo sapiens, UniProt P00734); experiment: Zymogen serine protease activity assay (Ile-Pro-Arg-pNA hydrolysis); type: biochemical; details: 100 nM prethrombin-2, 2 mM Ile-Pro-Arg-pNA, peptide titration
T4 construct: Zymogen serine proteases prethrombin-2 and Protein C were purchased from Haematologic Technologies, Inc; purchased Haematologic Technologies, Inc. (Essex Junction, Vt.)
Protocol: (§4) Zymogen serine proteases prethrombin-2 and Protein C were purchased from Haematologic Technologies, Inc. (Essex Junction, Vt.). Kinetic assays were carried out in 20 mM Hepes, 150 mM NaCl, 5 mM CaCl2, 0.01% Triton X-100, pH 7.2. All reactions contained 100 nM of enzyme plus 2 mM Ile-Pro-Arg-pNA substrate. IVGG.147A was titrated and the initial rates of substrate hydrolysis were measured in clear bottom 96-well plates using 405 nm absorbance on a SpectraMax Plus (Molecular Devices, Inc.).
(§5) The IVGG.14 peptide activator of pro-HGF took advantage of the canonical trypsin-like activation mechanism in order to allosterically activate binding of the serine protease-like domain within pro-HGF to Met. Given this activation mechanism is highly conserved among zymogens of the trypsin-like family of serine proteases and the fact that these proteins share a high degree of structural homology within the serine protease-like domains as well as the activation pockets, ZAPs for pro-HGF were analyzed for ability allosterically activate other zymogen serine proteases.

[7] = target: T5, Protein C (Homo sapiens, UniProt P04070); experiment: as above; type: biochemical; details: 100 nM Protein C, 2 mM Ile-Pro-Arg-pNA, peptide titration
T5 construct: purchased Haematologic Technologies, Inc. (Essex Junction, Vt.)
Protocol: as §4, §5

[8] = target: T2, scHGF; experiment: In vitro wound closure assay, HeLa cell migration in the presence of scHGF; type: cell-based; set-up: Full-length recombinant HGF proteins were expressed in 1-liter fermentation cultures of Chinese hamster ovary (CHO) cells; made in house; host or cells: CHO cells (scHGF); Met is endogenous in HeLa cells; details: HeLa cells, scHGF present, read-out: EC50 of HeLa cell migration response
From the text: as §3

[9] = tested on: BxPC-3 cells; experiment: BxPC-3 cell survival assay, HGF proteins alone; type: cell-based, human
Protocol: as §2, with “Final concentrations of HGF variants were 400 ng/ml and peptide concentrations were titrated accordingly.” left out

[10] = target: zymogen-like pro-MSP β-chain (zMSP β); experiment: Activation of zMSP β binding to RON; details: activation of zMSP β to bind RON
Protocol: The phage approach was also tested against pro-Macrophage Stimulating Protein (pro-MSP), another plasminogen-related growth factor, which, following proteolytic cleavage, signals through the RON receptor, having important roles in inflammation and cancer. Using a new cyclic library based on ZAP.03 (ZAPtide3 Library) and the described selection method a ZAPtide was discovered, ZAP3.2 that was specific for activating the zymogen-like pro-MSP β-chain (zMSP β) to bind RON with an AC50 of 134 μM.

T1 sequence (P14210 479-728 R494E): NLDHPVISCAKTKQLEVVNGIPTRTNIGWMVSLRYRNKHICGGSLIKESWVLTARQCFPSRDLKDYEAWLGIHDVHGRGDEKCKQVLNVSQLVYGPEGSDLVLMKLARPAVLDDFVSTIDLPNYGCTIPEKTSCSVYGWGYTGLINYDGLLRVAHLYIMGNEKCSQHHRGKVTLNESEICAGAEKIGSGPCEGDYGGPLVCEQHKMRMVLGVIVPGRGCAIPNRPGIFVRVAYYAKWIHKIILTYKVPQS
T1 sequence (P08581 27-515 partner limits assumed): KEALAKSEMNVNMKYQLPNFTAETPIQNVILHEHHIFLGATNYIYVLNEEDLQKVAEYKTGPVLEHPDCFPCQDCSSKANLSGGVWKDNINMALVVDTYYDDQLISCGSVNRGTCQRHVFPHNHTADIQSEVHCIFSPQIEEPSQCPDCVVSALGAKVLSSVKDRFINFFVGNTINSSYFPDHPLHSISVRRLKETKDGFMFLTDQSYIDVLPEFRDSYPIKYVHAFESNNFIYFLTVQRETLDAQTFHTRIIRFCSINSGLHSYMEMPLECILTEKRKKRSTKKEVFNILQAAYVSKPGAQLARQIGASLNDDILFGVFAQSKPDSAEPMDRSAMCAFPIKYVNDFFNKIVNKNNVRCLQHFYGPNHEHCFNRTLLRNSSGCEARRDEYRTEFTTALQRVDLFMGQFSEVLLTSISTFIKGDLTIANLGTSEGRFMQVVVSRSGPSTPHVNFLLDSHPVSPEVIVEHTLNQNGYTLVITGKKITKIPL
T2 sequence (P14210 32-728 R494E): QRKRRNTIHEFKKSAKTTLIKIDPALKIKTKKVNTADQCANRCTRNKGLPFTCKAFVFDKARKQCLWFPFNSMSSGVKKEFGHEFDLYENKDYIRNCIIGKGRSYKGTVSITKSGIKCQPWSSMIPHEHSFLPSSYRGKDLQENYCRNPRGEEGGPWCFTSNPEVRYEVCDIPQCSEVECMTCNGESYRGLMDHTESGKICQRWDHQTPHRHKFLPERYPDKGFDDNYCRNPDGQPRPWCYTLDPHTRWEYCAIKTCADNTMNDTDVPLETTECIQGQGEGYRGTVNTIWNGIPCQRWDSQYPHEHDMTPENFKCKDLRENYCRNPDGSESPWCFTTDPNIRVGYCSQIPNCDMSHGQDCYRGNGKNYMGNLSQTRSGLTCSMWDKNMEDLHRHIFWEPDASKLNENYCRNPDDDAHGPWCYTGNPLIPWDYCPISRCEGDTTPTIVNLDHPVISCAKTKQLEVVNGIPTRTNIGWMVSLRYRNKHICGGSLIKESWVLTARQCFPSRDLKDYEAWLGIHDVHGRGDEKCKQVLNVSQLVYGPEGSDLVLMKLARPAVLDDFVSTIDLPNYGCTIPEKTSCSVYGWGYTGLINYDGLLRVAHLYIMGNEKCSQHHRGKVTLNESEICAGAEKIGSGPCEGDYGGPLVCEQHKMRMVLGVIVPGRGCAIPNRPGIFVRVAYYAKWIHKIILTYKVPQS
T3 sequence (P14210 479-728 R494E/D672N): as the sequence (P14210 479-728 R494E) above, with D194N counted along it
T5 sequence (P04070 19-461 limits assumed): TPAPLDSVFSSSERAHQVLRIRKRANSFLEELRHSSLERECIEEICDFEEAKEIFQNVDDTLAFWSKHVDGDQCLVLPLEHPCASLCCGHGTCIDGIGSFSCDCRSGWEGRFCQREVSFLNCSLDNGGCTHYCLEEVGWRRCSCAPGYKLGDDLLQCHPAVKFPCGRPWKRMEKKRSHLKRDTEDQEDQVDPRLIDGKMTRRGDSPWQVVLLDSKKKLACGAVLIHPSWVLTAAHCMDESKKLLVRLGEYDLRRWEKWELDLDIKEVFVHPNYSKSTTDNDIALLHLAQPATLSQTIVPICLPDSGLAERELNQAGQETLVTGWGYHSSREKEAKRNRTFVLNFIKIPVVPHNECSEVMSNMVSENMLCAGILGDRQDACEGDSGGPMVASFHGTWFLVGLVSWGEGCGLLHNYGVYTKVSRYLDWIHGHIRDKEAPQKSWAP

For `CC[C@H](C)[C@H](N)C(=O)N[C@H](C(=O)NCC(=O)NCC(=O)N[C@@H](Cc1ccc(O)cc1)C(=O)N1CCC[C@H]1C(=O)N[C@@H](Cc1c[nH]c2ccccc12)C(=O)N[C@@H](Cc1c[nH]c2ccccc12)C(=O)N[C@@H](CCSC)C(=O)N[C@@H](CC(=O)O)C(=O)N[C@H](C(N)=O)C(C)C)C(C)C` [IVGG.14, I V G G Y P W W M D V] (H-IVGGYPWWMDV-NH2), the “fold improvement of AC50 over previous activators” value [1] was greater than 90 fold, the Kd ([1]; peptide titration with 0.5 μM scHGF β, biotinylated Met ECD on sensor, ±stdev of n=3) was 34 ± 3 µM and the AC50 ([1]; peptide-dependent activation of zHGF β binding to surface immobilized Met ECD, read-out: apparent activation constant (AC50)) was 21 µM. The “fold more potent than previously described peptides derived from the native HGF β N-terminus” value [1] was “ca. 60 fold”, the EC50 [2] was roughly 20 µM and the Kd [3] was 0.69 µM. For the same molecule, the “activity of peptide with scHGF β D672N” value [4] was “lack of activity; also recorded: completely abolished activity”.
In the case of `CC[C@H](C)[C@H](N)C(=O)N[C@H](C(=O)NCC(=O)NCC(=O)N[C@@H](Cc1ccc(O)cc1)C(=O)N1CCC[C@H]1C(=O)N[C@@H](C)C(=O)N[C@@H](Cc1c[nH]c2ccccc12)C(=O)N[C@@H](CCSC)C(=O)N[C@@H](CC(=O)O)C(=O)N[C@H](C(N)=O)C(C)C)C(C)C` [IVGG.147A, I V G G Y P A W M D V] (H-IVGGYPAWMDV-NH2; N-terminus assumed), the “solubility, in words” value [5] is reported as “exceptionally soluble”, the “initial rate of substrate hydrolysis (Vi)” value [6] is reported as “significantly increased” and the “initial rate of substrate hydrolysis (Vi)” value [7] is reported as “significantly increased”.
In the case of `CC[C@H](C)[C@H](N)C(=O)N[C@H](C(=O)N[C@H](CC(=O)O)C(=O)NCC(=O)N[C@@H](Cc1ccc(O)cc1)C(=O)N1CCC[C@H]1C(=O)N[C@@H](Cc1c[nH]c2ccccc12)C(=O)N[C@@H](Cc1c[nH]c2ccccc12)C(=O)N[C@@H](CCSC)C(=O)N[C@@H](CC(=O)O)C(=O)N[C@H](C(N)=O)C(C)C)C(C)C` [IVdG.14] (H-IV[dD]GYPWWMDV-NH2), the “fold more potent than previously described peptides derived from the native HGF β N-terminus” value [1] is reported as 100 fold and the “solubility, in words” value [5] is reported as “enhanced”.
For `CC[C@H](C)[C@H](N)C(=O)N[C@H](C(=O)NCC(=O)NCC(=O)N[C@H]1CSSC[C@@H](C(=O)N[C@H](C(N)=O)[C@@H](C)CC)NC(=O)[C@H](CCC(=O)O)NC(=O)[C@H](CCC(=O)O)NC(=O)[C@H](CCCNC(=N)N)NC(=O)[C@H](CC(=O)O)NC(=O)[C@H](CCSC)NC(=O)[C@H](Cc2c[nH]c3ccccc23)NC(=O)[C@H](Cc2ccc(O)cc2)NC(=O)[C@@H]2CCCN2C1=O)[C@@H](C)CC` [ZAP.03, I I G G C P Y W M D R E E C I] (H-IIGGCPYWMDREECI-NH2; disulfide 5-14), the EC50 [8] was 0.06 µM and the EC50 [2] was 0.4 µM.
In the case of “HGF: proteolytically activated two-chain human hepatocyte growth factor, recombinant”, the “stimulation of cell survival by HGF protein alone” value ([9]; 200 ng/ml (FIG. 11A)) is reported as “potently stimulate cell survival” and the “stimulation of cell survival by HGF protein alone” value ([9]; 400 ng/ml (FIG. 6A)) is reported as “potently stimulate cell survival”.
Work on “ZAP3.2: ZAPtide from the cyclic ZAPtide3 Library based on ZAP.03, activating zymogen-like pro-MSP β-chain (zMSP β) to bind RON (IVGGEPVWYVW; not fully specified)” yielded an AC50 [10] of 134 µM.
